Source: ChEMBL document CHEMBL1150898, “Synthesis and dopamine receptor selectivity of the benzyltetrahydroisoquinoline, (R)-(+)-nor-roefractine” (J Nat Prod, 1998)
pIC50: −log10 of the molar value.

Experiments:
D(2) dopamine receptor = D(2) dopamine receptor (Rattus norvegicus, UniProt P61169); assay: Displacement of [3H]raclopride from rat striatal dopamine D2 receptor
D(1A) dopamine receptor = D(1A) dopamine receptor (Rattus norvegicus, UniProt P18901); assay: Displacement of [3H]SCH-23390 from rat striatal dopamine D1 receptor
Sequence of D(1A) dopamine receptor (P18901 whole entry): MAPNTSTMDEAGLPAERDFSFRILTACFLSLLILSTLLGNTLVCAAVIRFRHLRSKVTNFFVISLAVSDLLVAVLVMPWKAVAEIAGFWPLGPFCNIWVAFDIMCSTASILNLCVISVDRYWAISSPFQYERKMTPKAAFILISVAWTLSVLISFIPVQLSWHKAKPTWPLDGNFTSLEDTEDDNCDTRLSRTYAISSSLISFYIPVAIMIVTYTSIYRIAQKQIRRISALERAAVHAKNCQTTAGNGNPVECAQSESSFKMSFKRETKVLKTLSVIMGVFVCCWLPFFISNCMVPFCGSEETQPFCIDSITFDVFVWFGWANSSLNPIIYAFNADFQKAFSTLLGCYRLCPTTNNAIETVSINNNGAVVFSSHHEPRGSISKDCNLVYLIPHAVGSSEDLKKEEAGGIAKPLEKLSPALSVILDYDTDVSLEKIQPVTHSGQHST

Rattus norvegicus = species: Rattus norvegicus; assay: Selectivity for rat striatal dopamine D2 receptor over rat striatal dopamine D1 receptor

Sequence of D(2) dopamine receptor (P61169 whole entry): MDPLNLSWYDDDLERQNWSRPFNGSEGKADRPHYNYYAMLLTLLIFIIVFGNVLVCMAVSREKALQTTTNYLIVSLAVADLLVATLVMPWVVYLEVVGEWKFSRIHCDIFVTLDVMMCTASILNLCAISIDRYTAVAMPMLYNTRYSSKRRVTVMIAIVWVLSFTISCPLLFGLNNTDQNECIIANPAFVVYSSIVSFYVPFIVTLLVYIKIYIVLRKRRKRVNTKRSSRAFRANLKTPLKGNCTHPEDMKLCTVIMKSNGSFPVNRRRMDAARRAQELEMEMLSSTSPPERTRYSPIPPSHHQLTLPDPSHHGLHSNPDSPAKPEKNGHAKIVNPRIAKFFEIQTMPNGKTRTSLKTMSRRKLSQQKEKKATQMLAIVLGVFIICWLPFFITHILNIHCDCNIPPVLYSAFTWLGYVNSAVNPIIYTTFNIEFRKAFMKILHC

In the case of `COc1cc2c(cc1O)[C@@H](Cc1ccc(O)cc1)NCC2`, the pIC50 (D(2) dopamine receptor) was 6.89 and the pIC50 (D(1A) dopamine receptor) was 6.62.
`COc1ccc(C[C@H]2NCCc3cc(O)c(OC)cc32)cc1` [NOR-ROEFRACTINE] gave a pIC50 (D(2) dopamine receptor) of 5.30, a Selectivity ratio (Rattus norvegicus) of 6 and a pIC50 (D(1A) dopamine receptor) of 4.48.
